The source of these data is patent US10231453B2, “5-substituted imidazole derivatives” (BAYER CROPSCIENCE AKTIENGESELLSCHAFT, priority 2015, dated 2019).

Each structure is given as a SMILES string. Read-outs that look alike come from different tables or passages of the source.

Series [1] is described as follows: Measurement of LogP values by HPLC on reversed phase columns (EEC directive 79/831 Annex V.A8). It is filed as physicochemical. Particulars: method [a]: LC-UV, acidic range, 0.1% formic acid in water and acetonitrile as eluent; Table 1. As for the experimental part: Measurement of Log P values was performed as outlined above.
Series [2] concerns Leptosphaeria nodorum. As to the kind of experiment: In vivo preventive Leptosphaeria nodorum test (wheat), Example N. Particulars: Parastagonospora nodorum, 192 h, 500 ppm of active ingredient, preventive spray, evaluated 8 days after inoculation, read-out: efficacy. An excerpt: After the spray coating has been dried, the plants are sprayed with a spore suspension of Leptosphaeria nodorum.

The test system of series [3] is Puccinia recondita. As to the kind of experiment: In vivo preventive test on Puccinia recondita (brown rust on wheat), Examples C and R3. The conditions noted are these: Puccinia recondita, 264 h, preventive spray, evaluated 11 days after inoculation.
Series [4] has as its system Pyrenophora teres. The experiment in a line: In vivo preventive test on Pyrenophora teres (net blotch on barley), Examples D, Q2 and R4. Particulars: Pyrenophora teres, 336 h; for pest or weed control at 100 ppm: Example R4, rate of application 100 ppm.
For series [5], the system named is Venturia inaequalis. As to the kind of experiment: In vivo preventive Venturia test (apples), Example J. Particulars: 240 h, read-out: efficacy.
Method: After the spray coating has dried on, the plants are inoculated with an aqueous conidia suspension of the causal agent of apple scab (Venturia inaequalis) and then remain for 1 day in an incubation cabinet at approximately 20° C. and a relative atmospheric humidity of 100%.
The plants are then placed in a greenhouse at approximately 21° C. and a relative atmospheric humidity of approximately 90%.
The test is evaluated 10 days after the inoculation.
The subject of series [6] is Sphaerotheca fuliginea. As to the kind of experiment: In vivo preventive test on Sphaerotheca fuliginea (powdery mildew on cucurbits), Examples F and R6. Particulars: Podosphaera fuliginea, 360 h, preventive spray, evaluated 15 days after inoculation.
Series [7] concerns Fusarium nivale (var. majus). The experiment in a line: In vivo preventive Fusarium nivale (var. majus) test (wheat), Example O. The conditions noted are these: Microdochium nivale, 120 h, 500 ppm of active ingredient, preventive spray, evaluated 5 days after inoculation, read-out: efficacy. An excerpt:
After the spray coating has been dried, the plants are slightly injured by using a sandblast and afterwards they are sprayed with a conidia suspension of Fusarium nivale (var. majus).

For series [8], the system named is Alternaria solani. As to the kind of experiment: In vivo preventive Alternaria test (tomatoes), Example H. Particulars: 72 h, 100 ppm of active ingredient, preventive spray, evaluated 3 days after inoculation, read-out: efficacy.
Series [9] has as its system Septoria tritici. The experiment in a line: In vivo preventive test on Septoria tritici (leaf spot on wheat), Examples E, Q3 and R5. The conditions noted are these: Zymoseptoria tritici, 576 h, preventive spray, evaluated 24 days after inoculation.
The test system of series [10] is Alternaria brassicae. The experiment in a line: In vivo preventive test on Alternaria brassicae (leaf spot on radish), Examples A and R1. The conditions noted are these: Alternaria brassicae, 144 h; for pest or weed control at 100 ppm: Example R1, rate of application 100 ppm.
The test system of series [11] is Pyricularia oryzae. The experiment in a line: whole plant or invertebrate. The series is classed as in vivo. Particulars: 192 h, read-out: efficacy.
For series [12], the system named is Fusarium graminearum. The experiment in a line: whole plant or invertebrate. Particulars: in Hordeum vulgare, 120 h, read-out: efficacy. The series is classed as in vivo.
Series [13] relates to Uromyces appendiculatus. As to the kind of experiment: In vivo preventive test on Uromyces appendiculatus (bean rust), Examples G and R7. The conditions noted are these: 264 h, preventive spray, evaluated 11 days after inoculation.
In series [14] the test system is Phakopsora pachyrhizi. The experiment in a line: In vivo preventive Phakopsora test (soybeans), Example I. The conditions noted are these: 168 h, 100 ppm of active ingredient, preventive spray, evaluated 7 days after inoculation, read-out: efficacy.
Series [15] concerns Botrytis cinerea. The experiment in a line: In vivo preventive test on Botrytis cinerea (grey mould) on gherkin, Examples B, Q1 and R2. Particulars: Botrytis cinerea; for pest or weed control at 100 ppm: Example R2, rate of application 100 ppm.
In series [16] the test system is Blumeria graminis fsp. hordei. The experiment in a line: In vivo preventive Blumeria test (barley), Example K. The conditions noted are these: 168 h, 500 ppm of active ingredient, preventive spray, evaluated 7 days after inoculation, read-out: efficacy. From the text: After the spray coating has been dried, the plants are dusted with spores of Blumeria graminis fsp. hordei.

[17] abbreviates: 500 ppm of active ingredient, wheat, read-out: efficacy.
Where [18] appears, read: Example R3, wheat, read-out: Efficacy in %.
Where [19] appears, read: Example R3, wheat, 500 ppm, read-out: Efficacy in %.
Where [20] appears, read: 500 ppm of active ingredient, preventive spray, evaluated 14 days after inoculation, read-out: efficacy.
The mark [21] stands for this setting: Example R4, rate of application 500 ppm, read-out: Efficacy in %.
The mark [22] stands for this setting: 500 ppm of active ingredient, gherkin, read-out: efficacy.
Setting [23] is: Example R6, gherkin, read-out: Efficacy in %.
Setting [24] is: Example R6, gherkin, 500 ppm, read-out: Efficacy in %.
The mark [25] stands for this setting: Example R5, wheat, read-out: Efficacy in %.
[26] abbreviates: Example R5, wheat, 500 ppm, read-out: Efficacy in %.
[27] abbreviates: 500 ppm of active ingredient, preventive spray, evaluated 6 days after inoculation, read-out: efficacy.
Setting [28] is: Example R1, rate of application 500 ppm, read-out: Efficacy in %.
Setting [29] is: 500 ppm of active ingredient, bean, read-out: efficacy.
Setting [30] is: Example R7, bean, read-out: Efficacy in %.
Setting [31] is: Example R7, bean, 500 ppm, read-out: Efficacy in %.
The mark [32] stands for this setting: 500 ppm of active ingredient, preventive spray, evaluated 4 to 5 days after inoculation, read-out: efficacy.
The mark [33] stands for this setting: Example R2, rate of application 500 ppm, read-out: Efficacy in %.

On to `OC(Cc1ccccc1Cl)(Cn1cncc1Br)C1(Cl)CC1` (stereo not shown) [Example I-04], for which the chromatographic logP (as a rule, lipophilicity estimated from chromatographic retention) in series [1] was 2.27. Also, the pest or weed control at 500 ppm is 90 to 100% in series [2]; 90 to 100% in series [3] (setting [17]); 94% in series [3] (setting [19]); 90 to 100% in series [4] (setting [20]); 93% in [4] (setting [21]); 90 to 100% in [6] (setting [22]). Also, the pest or weed control at 500 ppm was 100% in series [6] (setting [24]); 90 to 100% in series [7]; 90 to 100% in series [9] (setting [17]); 100% in series [9] (setting [26]); 70 to 79% in [10] (setting [27]); 70% in series [10] (setting [28]). The pest or weed control at 500 ppm in series [11] is 90 to 100%; in series [12], 70 to 79%; in series [13] (setting [29]), 90 to 100%; in series [13] (setting [31]), 100%; in [15] (setting [32]), 90 to 100%; in series [15] (setting [33]), 100%. The pest or weed control at 500 ppm in series [16] was 90 to 100%. Also, the pest or weed control at 100 ppm in series [3] (setting [18]) is 88%; in [4] (read-out: Efficacy in %), 71%; in [5], 90 to 100%; in [6] (setting [23]), 100%; in series [8] it was 90 to 100%; in [9] (setting [25]) it was 97%. The pest or weed control at 100 ppm is 20% in series [10] (read-out: Efficacy in %), 100% in series [13] (setting [30]), 90 to 100% in [14] and 90% in series [15] (read-out: Efficacy in %).

In turn, `OC(Cc1ccc(F)cc1Cl)(Cn1cncc1Cl)C1(Cl)CC1` (stereo not shown) [Example I-08] had a chromatographic logP in series [1] of 2.47. Besides, the pest or weed control at 500 ppm in [2] lay in the range of 90 to 100%; in [3] (setting [17]) it was 90 to 100%; in series [4] (setting [20]) it was 80 to 89%; in series [6] (setting [22]), 90 to 100%; in series [7] it was 90 to 100%; in series [9] (setting [17]) it was 90 to 100%. For the same molecule, the pest or weed control at 500 ppm in series [11] lay in the range of 70 to 79%; in [12], 70 to 79%; in series [13] (setting [29]), 90 to 100%; in [15] (setting [32]), 90 to 100%; in series [16], 90 to 100%. Further, the pest or weed control at 100 ppm in [5], in [8] and in [14] was 90 to 100% in each case.

`OC(Cc1ccccc1F)(Cn1cncc1Cl)C1(Cl)CC1` (stereo not shown) [Example I-32]: the chromatographic logP in series [1] turned out to be 2.07. Moreover, the pest or weed control at 500 ppm in series [2] is 80 to 89%; in series [3] (setting [17]), 90 to 100%; in series [3] (setting [19]), 94%; in [4] (setting [20]), 80 to 89%; in [4] (setting [21]) it was 89%; in [6] (setting [22]), 90 to 100%. Besides, the pest or weed control at 500 ppm was 100% in series [6] (setting [24]); 80 to 89% in series [7]; 90 to 100% in series [9] (setting [17]); 100% in series [9] (setting [26]); 90 to 100% in series [10] (setting [27]); 92% in [10] (setting [28]). Further, the pest or weed control at 500 ppm in series [12] is 70 to 79%; in [13] (setting [29]), 90 to 100%; in [13] (setting [31]) it was 100%; in [15] (setting [32]), 90 to 100%; in [15] (setting [33]), 100%; in series [16] it was 90 to 100%. Also, the pest or weed control at 100 ppm was 78% in series [3] (setting [18]); 78% in [4] (read-out: Efficacy in %); 90 to 100% in series [5]; 100% in series [6] (setting [23]); 90 to 100% in series [8]; 71% in series [9] (setting [25]). Also, the pest or weed control at 100 ppm in series [10] (read-out: Efficacy in %) is 50%; in series [13] (setting [30]), 81%; in [14], 90 to 100%; in [15] (read-out: Efficacy in %), 99%.

Molecule `N#Cc1cncn1CC(O)(Cc1ccc(Br)cc1F)C1(Cl)CC1` (stereo not shown) [Example I-42] displayed a chromatographic logP in series [1] of 3.24. In addition, the pest or weed control at 500 ppm in series [2] is 90 to 100%; in series [3] (setting [17]) it was 90 to 100%; in series [4] (setting [20]) it was 70 to 79%; in series [6] (setting [22]), 90 to 100%; in [7], 80 to 89%; in [9] (setting [17]), 90 to 100%. Further, the pest or weed control at 500 ppm in [11] is 80 to 89%; in [12] it was 80 to 89%; in series [13] (setting [29]), 90 to 100%; in series [15] (setting [32]), 80 to 89%; in series [16] it was 90 to 100%. Besides, the pest or weed control at 100 ppm in [5] lay in the range of 80 to 89%; in [8], 70 to 79%; in series [14], 90 to 100%.

For the molecule `N#Cc1cncn1CC(O)(Cc1ccc(F)cc1F)C1(Cl)CC1` (stereo not shown) [Example I-125], the chromatographic logP in [1] is 2.78. The pest or weed control at 500 ppm in series [2] was in the range of 80 to 89%; in series [3] (setting [17]) it was 90 to 100%; in [6] (setting [22]) it was 90 to 100%; in series [7], 90 to 100%; in series [9] (setting [17]), 90 to 100%; in series [11] it was 80 to 89%. Also, the pest or weed control at 500 ppm in series [12] is 90 to 100%; in series [13] (setting [29]), 90 to 100%; in [15] (setting [32]), 80 to 89%; in series [16], 90 to 100%. For the same molecule, the pest or weed control at 100 ppm in series [5], in series [8] and in series [14] was 90 to 100% in each case.

`N#Cc1cncn1CC(O)(Cc1cccc(F)c1F)C1(Cl)CC1` (stereo not shown) [Example I-146] came in with a chromatographic logP in [1] of 2.75. For the same molecule, the pest or weed control at 500 ppm in series [2], in series [3] (setting [17]), in [4] (setting [20]), in series [6] (setting [22]), in series [7] and in series [9] (setting [17]) was 90 to 100% in each case. For the same molecule, the pest or weed control at 500 ppm in series [11] lay within 70 to 79%; in series [12] it was 90 to 100%; in series [13] (setting [29]) it was 90 to 100%; in series [15] (setting [32]) it was 90 to 100%; in [16] it was 90 to 100%. Further, the pest or weed control at 100 ppm in [5], in series [8] and in series [14] was 90 to 100% in each case.

In [1], `OC(Cc1cccc(F)c1F)(Cn1cncc1Cl)C1(Cl)CC1` (stereo not shown) [Example I-147] came in with a chromatographic logP of 2.17. The pest or weed control at 500 ppm in series [2], in [3] (setting [17]), in series [4] (setting [20]), in series [6] (setting [22]), in series [7] and in series [9] (setting [17]) was 90 to 100% each time. For the same molecule, the pest or weed control at 500 ppm in [11] fell in the range of 80 to 89%; in [12] it was 90 to 100%; in [13] (setting [29]), 90 to 100%; in series [15] (setting [32]), 90 to 100%; in series [16], 90 to 100%. In addition, the pest or weed control at 100 ppm in series [5], in series [8] and in [14] was 90 to 100% in each case.
